Experimental data: patent publication US11760978B2, “Cell culture medium for culturing organoid, culture method, and organoid” (KEIO UNIVERSITY, priority 2016, dated 2023)

Tested on: epithelial tumor cells derived from colon tumor
Assay: Subculturing (long-term culturing) of epithelial tumor cells derived from colon tumor, Example 4
Format: cell-based, human
Conditions: SB202190 10 μM in medium, oxygen 20%
Protocol: “WIFNRA medium”, “W^AfmIFNRA medium” and “WENRAS” medium were prepared using the same method as in section (2) of Example 4. In addition, recombinant human R-spondin 1 (R&D Systems) was added to commercially available Advanced DMEM/F-12 medium (Thermo Fisher Scientific) to a final concentration of 1 μg/mL followed by the addition noggin (Peprotech) to a final concentration of 100 ng/mL and A83-01 (Tocris) to a final concentration of 500 nM. Moreover, a medium was prepared in which the Wnt3a-afamin complex prepared in (1) above was added to a final concentration 300 ng/mL, IGF1 (Biolegend) was added to a final concentration of 100 ng/mL, FGF2 (Peprotech) was added to a final concentration of 50 ng/mL, and […] (Sigma-Aldrich) was added to a final concentration of 10 μM (and the resulting medium may be referred to as “W^AfmIFNRAS medium”).
Epithelial tumor cells were obtained using the same method as in section (2) of Example 1. Next, the epithelial tumor cells were seeded in a 48-well plate together with 25 μL of Matrigel® (BD Bioscience). The “WIFNRA medium”, “W^MmIFNRA medium”, “WENRAS medium” and “WAfmIFNRAS medium” prepared in (2) above were added in 250 μL aliquots to the wells seeded with epithelial tumor cells followed by culturing at 37° C. and oxygen concentration of 20%. The medium was replaced every two days from the start of culturing. […]

For `Oc1ccc(-c2nc(-c3ccncc3)c(-c3ccc(F)cc3)[nH]2)cc1` [SB202190, 4-(4-fluorophenyl)-2-(4-hydroxyphenyl)-5-(4-pyridyl)-1H-imidazole], the “toxicity to epithelial tumor cells” value was “exhibited toxicity”.
